From patent publication US4385055A, “2-Acetyl-and 2-propionylpyridine thiosemicarbazones as antimalarials” (The United States of America as represented by the …, priority 1981, dated 1983)
Values after ≈ are worked out from the molar mass of the structure shown. Read-outs that look alike come from different tables or passages of the source.

Columns and labels:
Format in all cases: cell-based
Mycobacterium smegmatis = test: MIC against Mycobacterium smegmatis strains (Test 4); conditions: Mycolicibacterium smegmatis, read-out: Minimum Inhibitory Concentration
Procedure: Compounds were tested against four strains of Mycobacterium smegmatis. The test procedure used was as mentioned by N. E. Morrison [Int. J. of Leprosy 39:34-43 (1971)]. The strain numbers refer to Mycobacterium smegmatis ATCC 607, a DDS-resistant daughter strain, a Rifampin-resistant daughter strain, and a Clofazimine-resistant daughter strain, respectively.

Neisseria meningitidis = test: Macro broth dilution MIC, Neisseria meningitidis isolates (Test 2); conditions: for MIC: Neisseria meningitidis, 24 h, read-out: Minimum Inhibitory Concentration
Procedure: Compounds were tested against five isolates of Neisseria meningitidis. The bacterial isolates were provided by the Department of Bacterial Diseases of the Walter Reed Army Institute of Research. The test procedure used was the macro broth dilution method in duplicate outlined by J. C. Sherris on pages 414-415 (loc. cit.). The test compounds and controls were prepared as in Test 1 above. Ampicillin and penicillin standards were initially diluted as described by J. C. Sherris on pages 411-412 (loc. cit.) followed by dilution with Mueller-Hinton broth. The tubes were incubated at 37° C. under 5-10% carbon dioxide.

Neisseria gonorrhoeae = test: Agar dilution MIC, Neisseria gonorrhoeae isolates (Test 3); conditions: 24 h
Procedure: Compounds were tested against six Neisseria gonorrhoeae isolates. The bacteria used were provided by the Department of Bacterial Diseases of the Walter Reed Army Institute of Research. The test procedure used was the agar dilution method in duplicate as outlined by J. C. Sherris on pages 411-412 (loc. cit.). GC Medium (Difco) with a 2% defined supplement added as described by D. S. Kellogg et al. [J. Bact. 85:1274-1279 (1963)] was used as the media. The compounds were dissolved in DMSO (1.0 mg/mL), diluted with GC broth (GC Medium without agar) to the appropriate concentration, and added to the GC Medium at 55°-56° C. The latter was then poured and allowed to solidify. A penicillin standard was also prepared with initial dilutions as described by J. C. Sherris followed by dilutions with GC broth and addition to the GC Medium at 55°-56° C. as above. The inoculum was 1:200 GC broth dilution of a suspension of colony isolates after the suspension was adjusted visually to the turbidity standard described by J. M. Matsen and A. L. Barr on page 422 in "Manual of Clinical Microbiology," 2nd ed., E. Lennette, E. H. Spaulding, and J. P. Truant, Ed. (American Society for Microbiology, Washington, D.C., 1974). The plates were inoculated with a replicator and incubated at 37° C. under 5-10% carbon dioxide.

[1] = ATCC607, Mycobacterium smegmatis strain I (ATCC 607)
[2] = Mycobacterium smegmatis strain II (DDS-resistant daughter strain)
[3] = Mycobacterium smegmatis strain III (Rifampin-resistant daughter strain)
[4] = Mycobacterium smegmatis strain IV (Clofazimine-resistant daughter strain)
[5] = Neisseria meningitidis isolate 7957, read after 24 hours
[6] = Neisseria meningitidis isolate 7990, read after 24 hours
[7] = Neisseria meningitidis isolate 8005, read after 24 hours
[8] = Neisseria meningitidis isolate 8006, read after 24 hours
[9] = Neisseria meningitidis isolate 8011, read after 24 hours
[10] = Neisseria gonorrhoeae isolate 135, read after 24 hours, read-out: Minimum Inhibitory Concentration
[11] = Neisseria gonorrhoeae isolate 161, read after 24 hours, read-out: Minimum Inhibitory Concentration
[12] = Neisseria gonorrhoeae isolate 278, read after 24 hours, read-out: Minimum Inhibitory Concentration
[13] = Neisseria gonorrhoeae isolate 455, read after 24 hours, read-out: Minimum Inhibitory Concentration
[14] = Neisseria gonorrhoeae isolate 456, read after 24 hours, read-out: Minimum Inhibitory Concentration
[15] = Neisseria gonorrhoeae isolate 602, read after 24 hours, read-out: Minimum Inhibitory Concentration

Structure (SMILES)	MIC (Mycobacterium smegmatis; [1]) [mg/L]	MIC (Mycobacterium smegmatis; [2]) [mg/L]	MIC (Mycobacterium smegmatis; [3]) [mg/L]	MIC (Mycobacterium smegmatis; [4]) [mg/L]	MIC (Neisseria gonorrhoeae; [10]) [mg/L]	MIC (Neisseria gonorrhoeae; [11]) [mg/L]	MIC (Neisseria gonorrhoeae; [12]) [mg/L]	MIC (Neisseria gonorrhoeae; [13]) [mg/L]	MIC (Neisseria gonorrhoeae; [14]) [mg/L]	MIC (Neisseria gonorrhoeae; [15]) [mg/L]	other results
C=CCNC(=S)NN=C(C)c1ccccn1 [A, 2-Acetylpyridine 4-allyl-3-thiosemicarbazone]	< 1	< 1	< 1	< 1	–	–	–	–	–	–	–
CC1(C)S[C@@H]2[C@H](NC(=O)[C@H](N)c3ccccc3)C(=O)N2[C@H]1C(=O)O [Ampicillin, reference compound]	–	–	–	–	–	–	–	–	–	–	MIC (Neisseria meningitidis; [5]): 0.008 mg/L (≈ 0.0229 µM); MIC (Neisseria meningitidis; [6]): 0.008 mg/L (≈ 0.0229 µM); MIC (Neisseria meningitidis; [7]): 0.008 mg/L (≈ 0.0229 µM); MIC (Neisseria meningitidis; [8]): 0.016 mg/L (≈ 0.0458 µM); MIC (Neisseria meningitidis; [9]): 0.016 mg/L (≈ 0.0458 µM)
CC(C)/N=c1\cc2n(-c3ccc(Cl)cc3)c3ccccc3nc-2cc1Nc1ccc(Cl)cc1 [Clofazimine, reference compound]	1.5 (≈ 3.17 µM)	–	–	20 (≈ 42.2 µM)	–	–	–	–	–	–	–
Nc1ccc(S(=O)(=O)c2ccc(N)cc2)cc1 [DDS, reference compound]	2 (≈ 8.05 µM)	400 (≈ 1610 µM)	–	–	–	–	–	–	–	–	–
CC(=NNC(=S)N1CCC1)c1ccccn1 [FF, Azetidine-1-thiocarboxylic acid 2-[1-(2-pyridyl)ethylidene]hydrazide]	2 (≈ 8.54 µM)	2 (≈ 8.54 µM)	< 1	< 1	–	–	–	–	–	–	–
CC(=NNC(=S)N1CCCCC1)c1ccccn1 [GG, Piperidine-1-thiocarboxylic acid 2-[1-(2-pyridyl)ethylidene]hydrazide]	–	–	–	–	0.008 (≈ 0.0305 µM)	0.004 (≈ 0.0152 µM)	0.008 (≈ 0.0305 µM)	0.008 (≈ 0.0305 µM)	0.008 (≈ 0.0305 µM)	0.008 (≈ 0.0305 µM)	–
CC(=NNC(=S)N1CCCC1)c1ccccn1 [HH, 1-Azacyclopentane-1-thiocarboxylic acid 2-[1-(2-pyridyl)ethylidene]hydrazide]	2 (≈ 8.05 µM)	3 (≈ 12.1 µM)	2 (≈ 8.05 µM)	4 (≈ 16.1 µM)	0.008 (≈ 0.0322 µM)	0.004 (≈ 0.0161 µM)	0.008 (≈ 0.0322 µM)	0.008 (≈ 0.0322 µM)	0.008 (≈ 0.0322 µM)	0.008 (≈ 0.0322 µM)	–
CCC(=NNC(=S)N(C)C)c1ccccn1 [JJ, 2-Propionylpyridine 4,4-dimethyl-3-thiosemicarbazone]	–	–	–	–	0.016 (≈ 0.0677 µM)	0.004 (≈ 0.0169 µM)	0.016 (≈ 0.0677 µM)	0.008 (≈ 0.0338 µM)	0.008 (≈ 0.0338 µM)	0.008 (≈ 0.0338 µM)	–
CC(=NNC(=S)N1CCN(c2ccccc2)CC1)c1ccccn1 [K, 1,4-Diaza-4-phenylcyclohexane-1-thiocarboxylic acid 2-[1-(2-pyridyl)ethylidene]hydrazide]	–	–	–	–	0.031 (≈ 0.0913 µM)	< 0.008	0.031 (≈ 0.0913 µM)	0.031 (≈ 0.0913 µM)	0.016 (≈ 0.0471 µM)	0.031 (≈ 0.0913 µM)	MIC (Neisseria meningitidis; [5]): 0.062 mg/L (≈ 0.183 µM); MIC (Neisseria meningitidis; [6]): 0.062 mg/L (≈ 0.183 µM); MIC (Neisseria meningitidis; [7]): 1 mg/L (≈ 2.95 µM); MIC (Neisseria meningitidis; [8]): 0.062 mg/L (≈ 0.183 µM); MIC (Neisseria meningitidis; [9]): 0.125 mg/L (≈ 0.368 µM)
CC1(C)S[C@@H]2[C@H](NC(=O)Cc3ccccc3)C(=O)N2[C@H]1C(=O)O [Penicillin, reference compound]	–	–	–	–	–	–	–	–	–	–	Minimum Inhibitory Concentration (Neisseria meningitidis; [6]): 0.031 µg/mL; Minimum Inhibitory Concentration (Neisseria meningitidis; [8]): 0.031 µg/mL; Minimum Inhibitory Concentration (Neisseria meningitidis; [9]): 0.031 µg/mL; MIC (Neisseria meningitidis): 0.031 mg/L (≈ 0.0927 µM); MIC (Neisseria gonorrhoeae; read-out: Minimum Inhibitory Concentration, Neisseria gonorrhoeae isolate 135, read after 24 hours): 0.25 mg/L (≈ 0.748 µM); MIC (Neisseria gonorrhoeae; read-out: Minimum Inhibitory Concentration, Neisseria gonorrhoeae isolate 161, read after 24 hours): 0.125 mg/L (≈ 0.374 µM); MIC (Neisseria gonorrhoeae; read-out: Minimum Inhibitory Concentration, Neisseria gonorrhoeae isolate 278, read after 24 hours): < 0.062 mg/L; MIC (Neisseria gonorrhoeae; read-out: Minimum Inhibitory Concentration, Neisseria gonorrhoeae isolate 455, read after 24 hours): 0.125 mg/L (≈ 0.374 µM); MIC (Neisseria gonorrhoeae; read-out: Minimum Inhibitory Concentration, Neisseria gonorrhoeae isolate 456, read after 24 hours): > 16 mg/L; MIC (Neisseria gonorrhoeae; read-out: Minimum Inhibitory Concentration, Neisseria gonorrhoeae isolate 602, read after 24 hours): > 16 mg/L
CC(=NNC(=S)N(C)C)c1ccccn1 [R, 2-Acetylpyridine 4,4-dimethyl-3-thiosemicarbazone]	2 (≈ 9 µM)	3 (≈ 13.5 µM)	2 (≈ 9 µM)	2 (≈ 9 µM)	0.004 (≈ 0.018 µM)	0.004 (≈ 0.018 µM)	0.008 (≈ 0.036 µM)	0.008 (≈ 0.036 µM)	0.008 (≈ 0.036 µM)	0.008 (≈ 0.036 µM)	MIC (Neisseria meningitidis; [5]): 0.062 mg/L (≈ 0.279 µM); MIC (Neisseria meningitidis; [6]): 0.125 mg/L (≈ 0.562 µM); MIC (Neisseria meningitidis; [7]): 0.062 mg/L (≈ 0.279 µM); MIC (Neisseria meningitidis; [8]): 0.062 mg/L (≈ 0.279 µM); MIC (Neisseria meningitidis; [9]): 0.125 mg/L (≈ 0.562 µM)
CO[C@H]1/C=C/O[C@@]2(C)Oc3c(C)c(O)c4c(O)c(c(/C=N/N5CCN(C)CC5)c(O)c4c3C2=O)NC(=O)/C(C)=C\C=C\[C@H](C)[C@H](O)[C@@H](C)[C@@H](O)[C@@H](C)[C@H](OC(C)=O)[C@@H]1C [Rifampin, reference compound]	1 (≈ 1.22 µM)	–	250 (≈ 304 µM)	–	–	–	–	–	–	–	–
CC(=NNC(=S)N1CCN(c2ccccn2)CC1)c1ccccn1.Cl.Cl [W, 1,4-Diaza-4-(2-pyridyl)cyclohexane-1-thiocarboxylic acid 2-[1-(2-pyridyl)-ethylidene]hydrazide dihydrochloride]	6	10	5	6	–	–	–	–	–	–	–
